Source: PubChem BioAssay AID328 (DTP/NCI, 2004)
Several values for one entry are separate records, joined by “and”; a condition that tells them apart may be missing. Identical values can stand only once. Toxic doses and inconclusive results are not listed. How the source made its calls: active means survival T/C of 150% or more; inactive means T/C below 125% in these data.

System: BDF1 mice, P388 leukemia ip, median survival T/C
Assay: NCI In Vivo Anticancer Drug Screen. Data for tumor model P388 Leukemia (intraperitoneal) in B6D2F1 (BDF1) mice
Settings: endpoint: median survival time, higher = longer survival
Method in brief: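 Antitumour effect was judged in vivo: survival in drug-treated mice, normalised to that of vehicle-dosed controls, gives the reported T/C.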

[1] = dose: 50.0 mg/kg/injection, schedule: Q04DX003 (ip), vehicle: saline with Tween-80
[2] = dose: 100.0 mg/kg/injection, schedule: Q04DX003 (ip), vehicle: saline with Tween-80
[3] = dose: 200.0 mg/kg/injection, schedule: Q04DX003 (ip), vehicle: saline with Tween-80
[4] = dose: 50.0 mg/kg/injection, schedule: Q01DX009 (ip), vehicle: saline with Tween-80
[5] = dose: 100.0 mg/kg/injection, schedule: Q01DX009 (ip), vehicle: saline with Tween-80
[6] = dose: 25.0 mg/kg/injection, schedule: Q01DX001 (ip), vehicle: saline with Tween-80
[7] = dose: 50.0 mg/kg/injection, schedule: Q01DX001 (ip), vehicle: saline with Tween-80
[8] = dose: 100.0 mg/kg/injection, schedule: Q01DX001 (ip), vehicle: saline with Tween-80
[9] = dose: 100.0 mg/kg/injection, schedule: Q01DX009 (ip), vehicle: saline
[10] = dose: 200.0 mg/kg/injection, schedule: Q01DX009 (ip), vehicle: saline
[11] = dose: 50.0 mg/kg/injection, schedule: Q04DX003 (ip), vehicle: saline sonified
[12] = dose: 100.0 mg/kg/injection, schedule: Q04DX003 (ip), vehicle: saline sonified
[13] = dose: 200.0 mg/kg/injection, schedule: Q04DX003 (ip), vehicle: saline sonified
[14] = dose: 200.0 mg/kg/injection, schedule: Q01DX009 (ip), vehicle: saline with Tween-80
[15] = dose: 100.0 mg/kg/injection, schedule: Q01DX009 (ip), vehicle: Klucel (hydroxypropylcellulose) (HPC)
[16] = dose: 100.0 mg/kg/injection, schedule: Q04DX003 (ip), vehicle: Klucel (hydroxypropylcellulose) (HPC)
[17] = dose: 200.0 mg/kg/injection, schedule: Q01DX009 (ip), vehicle: Klucel (hydroxypropylcellulose) (HPC)
[18] = dose: 200.0 mg/kg/injection, schedule: Q04DX003 (ip), vehicle: Klucel (hydroxypropylcellulose) (HPC)
[19] = dose: 400.0 mg/kg/injection, schedule: Q04DX003 (ip), vehicle: Klucel (hydroxypropylcellulose) (HPC)

Measured: T/C

CC(=O)OC1CC2CCC1(C)C2(C)C (stereo not drawn)
inactive: [1] 109 % of control | [2] 109 % of control | [3] 118 % of control

ClC(Cl)(Cl)SSC(=Nc1ccccc1)SSC(Cl)(Cl)Cl
inactive: [4] 106 % of control | [5] 117 % of control

N#C[S-].N#C[S-].[NH-]CC[NH-].[Pt+4]
inactive: dose: 10.0 mg/kg/injection, schedule: Q01DX009 (ip), vehicle: saline with Tween-80 113 % of control | dose: 10.0 mg/kg/injection, schedule: Q04DX003 (ip), vehicle: saline with Tween-80 104 % of control | dose: 20.0 mg/kg/injection, schedule: Q04DX003 (ip), vehicle: saline with Tween-80 100 % of control | dose: 26.4 mg/kg/injection, schedule: Q01DX009 (ip), vehicle: saline with Tween-80 90 % of control | dose: 40.0 mg/kg/injection, schedule: Q01DX009 (ip), vehicle: saline with Tween-80 90 % of control | dose: 40.0 mg/kg/injection, schedule: Q04DX003 (ip), vehicle: saline with Tween-80 86 % of control | dose: 60.0 mg/kg/injection, schedule: Q01DX009 (ip), vehicle: saline with Tween-80 118 % of control

C/C=C/C(=O)NCC(C(C)C)/[N+]([O-])=N/O (stereo not drawn)
inactive: dose: 6.25 mg/kg/injection, schedule: Q01DX009 (ip), vehicle: saline with Tween-80 104 % of control | dose: 12.5 mg/kg/injection, schedule: Q01DX009 (ip), vehicle: saline with Tween-80 116 % of control | dose: 25.0 mg/kg/injection, schedule: Q01DX009 (ip), vehicle: saline with Tween-80 87 % of control

Cn1ccn(C2CCCCC2)c1=O
inactive: dose: 25.0 mg/kg/injection, schedule: Q04DX003 (ip), vehicle: saline with Tween-80 95 % of control | [1] 100 % of control

O=C1C(c2ccccc2)=S=C2C=CC=CN12
inactive: dose: 12.5 mg/kg/injection, schedule: Q01DX001 (ip), vehicle: saline with Tween-80 109 % of control | [6] 100 % of control | [7] 87 % of control | [8] 100 % of control

CN=C(c1ccc(NC(=O)c2ccc(C(=O)Nc3ccc(C(=NC)N(C)C)cc3)cc2)cc1)N(C)C
inactive: dose: 2.0 mg/kg/injection, schedule: Q01DX010 (ip), vehicle: water 110 % of control | dose: 4.0 mg/kg/injection, schedule: Q01DX010 (ip), vehicle: water 115 % of control

C#CCOCC(O)CN (stereo not drawn)
inactive: [9] 100 % of control | dose: 100.0 mg/kg/injection, schedule: Q04DX003 (ip), vehicle: saline 110 % of control | [10] 120 % of control | dose: 200.0 mg/kg/injection, schedule: Q04DX003 (ip), vehicle: saline 100 % of control | dose: 400.0 mg/kg/injection, schedule: Q01DX009 (ip), vehicle: saline 104 % of control | dose: 400.0 mg/kg/injection, schedule: Q04DX003 (ip), vehicle: saline 100 % of control

CC1(C)Oc2cc3oc(C(=O)O)cc(=O)c3cc2-c2ccc(O)cc21
inactive: dose: 100.0 mg/kg/injection, schedule: Q04DX002 (ip), vehicle: saline with Tween-80 119 % of control | dose: 200.0 mg/kg/injection, schedule: Q04DX002 (ip), vehicle: saline with Tween-80 107 % of control | dose: 400.0 mg/kg/injection, schedule: Q04DX002 (ip), vehicle: saline with Tween-80 108 % of control

CCOC(=O)/C(O)=C(\C=N\C(N)=O)C(=O)OCC
inactive: [11] 100 % of control | [12] 105 % of control | [13] 110 % of control

O=C1CSC(=S)N1
inactive: [4] 122 % of control | [5] 122 % of control | [14] 104 % of control

NC(=O)N/N=C1/CCCC(C(=O)O)C1 (stereo not drawn)
inactive: dose: 50.0 mg/kg/injection, schedule: Q01DX001 (ip), vehicle: Klucel (hydroxypropylcellulose) (HPC) 91 % of control | dose: 100.0 mg/kg/injection, schedule: Q01DX001 (ip), vehicle: Klucel (hydroxypropylcellulose) (HPC) 116 % of control | dose: 200.0 mg/kg/injection, schedule: Q01DX001 (ip), vehicle: Klucel (hydroxypropylcellulose) (HPC) 91 % of control | dose: 400.0 mg/kg/injection, schedule: Q01DX001 (ip), vehicle: Klucel (hydroxypropylcellulose) (HPC) 95 % of control

O=[N+]([O-])c1ccc(S(=O)c2ccc([N+](=O)[O-])cc2)cc1
inactive: [15] 100 % of control | [16] 100 % of control | [17] 95 % of control | [18] 100 % of control | [19] 100 % of control

Cn1c(=O)n(C)c2ccccc21
inactive: dose: 15.0 mg/kg/injection, schedule: Q01DX001 (ip), vehicle: saline 90 % of control | [6] 90 % of control and 100 % of control | dose: 25.0 mg/kg/injection, schedule: Q01DX001 (ip), vehicle: saline 90 % of control | dose: 35.0 mg/kg/injection, schedule: Q01DX001 (ip), vehicle: saline 100 % of control | [7] 104 % of control | dose: 50.0 mg/kg/injection, schedule: Q01DX001 (ip), vehicle: saline 100 % of control | dose: 75.0 mg/kg/injection, schedule: Q01DX001 (ip), vehicle: saline 90 % of control | [8] 90 % of control and 95 % of control | [16] 95 % of control | [18] 91 % of control | [19] 91 % of control

C=C1CC(OC(=O)c2ccc([N+](=O)[O-])cc2)C1
inactive: [4] 111 % of control | [5] 111 % of control | [14] 90 % of control

O=C(CC(O)(C(F)(F)F)C(F)(F)F)c1ccc(Br)cc1
inactive: dose: 100.0 mg/kg/injection, schedule: Q01DX009 (ip), vehicle: other 91 % of control | dose: 100.0 mg/kg/injection, schedule: Q04DX003 (ip), vehicle: other 120 % of control | dose: 200.0 mg/kg/injection, schedule: Q01DX009 (ip), vehicle: other 91 % of control | dose: 200.0 mg/kg/injection, schedule: Q04DX003 (ip), vehicle: other 110 % of control | dose: 400.0 mg/kg/injection, schedule: Q01DX009 (ip), vehicle: other 91 % of control | dose: 400.0 mg/kg/injection, schedule: Q04DX003 (ip), vehicle: other 120 % of control

CCOC(=O)c1c[nH]c(=S)n1C
inactive: [15] 95 % of control | [16] 95 % of control | [17] 104 % of control | [18] 91 % of control

C/C=C/C=C/C(=O)NO
inactive: dose: 100.0 mg/kg/injection, schedule: Q04DX003 (ip), vehicle: alcohol 113 % of control | [17] 91 % of control | dose: 200.0 mg/kg/injection, schedule: Q04DX003 (ip), vehicle: alcohol 100 % of control | dose: 400.0 mg/kg/injection, schedule: Q01DX009 (ip), vehicle: Klucel (hydroxypropylcellulose) (HPC) 116 % of control | dose: 400.0 mg/kg/injection, schedule: Q04DX003 (ip), vehicle: alcohol 104 % of control

N#CCc1ccc2c(c1)[nH]c1ccccc12
inactive: [11] 104 % of control | [12] 109 % of control | [13] 104 % of control

CCOCCOC(=O)Nc1ccc(C)c(NC(=O)OCCOCC)c1
inactive: [4] 93 % of control | [5] 90 % of control | [14] 100 % of control

O=C(c1ccccc1Cl)n1c2c(c3ccccc31)CCCC2
inactive: [2] 100 % of control | [3] 104 % of control | dose: 400.0 mg/kg/injection, schedule: Q04DX003 (ip), vehicle: saline with Tween-80 100 % of control

N=C([Se])c1ncn(C2OC(CO)C(O)C2O)c1N (stereo not drawn)
inactive: dose: 6.25 mg/kg/injection, schedule: Q04DX003 (ip), vehicle: saline 106 % of control | dose: 12.5 mg/kg/injection, schedule: Q04DX003 (ip), vehicle: saline 108 % of control | dose: 25.0 mg/kg/injection, schedule: Q04DX003 (ip), vehicle: saline 111 % of control | dose: 50.0 mg/kg/injection, schedule: Q04DX003 (ip), vehicle: saline 106 % of control

Cc1nc2c(sc(=N)n2-c2ccccc2)c(=O)[nH]1
inactive: [4] 114 % of control

CCN(CC)CCCC(C)NCCCN (stereo not drawn)
inactive: dose: 50.0 mg/kg/injection, schedule: Q01DX009 (ip), vehicle: saline 96 % of control | [9] 96 % of control | [10] 94 % of control
